{"source": "the OligoGym collection", "settings": "siRNA", "note": "Where “and” joins values, the source holds several entries; their conditions need not be identical. Equal values may be shown once. HELM strings list units from the 5' end as sugar, base in round brackets, then linkage (d deoxyribose, r ribose, m 2'-O-methyl, p phosphodiester). Strings are as the collection lists them, not checked against the first reports. ss, as = sense and antisense strand; [lna] = locked nucleic acid (LNA); [una] = unlocked nucleic acid; [s4r] = 4'-thioribose; [fl2r] = 2'-fluoro; further: test system not given here"}
{"substance": "RNA1{r(A)p.r(A)p.r(C)p.r(U)p.r(C)p.[fl2r](U)p.r(A)p.r(C)p.[fl2r](U)p.r(G)p.[fl2r](U)p.r(G)p.r(G)p.r(A)p.r(G)p.r(U)p.r(C)p.r(G)p.r(G)p.r(T)p.r(T)}|RNA2{r(C)p.r(C)p.r(G)p.r(A)p.r(C)p.r(U)p.r(C)p.[fl2r](C)p.r(A)p.[fl2r](C)p.r(A)p.r(G)p.[fl2r](U)p.r(A)p.r(G)p.r(A)p.r(G)p.r(U)p.r(U)p.r(T)p.r(T)}$$$RNA1{StrandType:ss}|RNA2{StrandType:as}$", "values": [{"measurement": "target mRNA knockdown", "result": 65, "unit": "%"}]}
{"substance": "RNA1{[fl2r](A)p.r(A)p.[fl2r](C)p.r(C)p.[fl2r](C)p.r(A)p.[fl2r](C)p.r(C)p.[fl2r](A)p.r(C)p.[fl2r](A)p.r(G)p.[fl2r](C)p.r(U)p.[fl2r](A)p.r(G)p.[fl2r](A)p.r(A)p.[fl2r](C)p.r(U)p.r(U)}|RNA2{[fl2r](G)p.r(U)p.r(U)p.r(C)p.r(U)p.r(A)p.[fl2r](G)p.r(C)p.r(U)p.[fl2r](G)p.r(U)p.[fl2r](G)p.[fl2r](G)p.r(U)p.[fl2r](G)p.[fl2r](G)p.[fl2r](G)p.r(U)p.r(U)p.r(U)p.r(U)}$$$RNA1{StrandType:ss}|RNA2{StrandType:as}$", "values": [{"measurement": "target mRNA knockdown", "result": 57, "unit": "%"}]}
{"substance": "RNA1{r(C)p.r(G)p.r(U)p.r(A)p.r(C)p.r(G)p.r(C)p.r(G)p.r(G)p.r(A)p.r(A)p.r(U)p.r(A)p.r(C)p.r(U)p.r(U)p.r(C)p.r(G)p.r(A)p.r(T)p.r(T)}|RNA2{r(U)p.r(C)p.r(G)p.r(A)p.r(A)p.r(G)p.r(U)p.r(A)p.r(U)p.r(U)p.r(C)p.r(C)p.r(G)p.m(C)p.m(G)p.m(U)p.m(A)p.m(C)p.m(G)p.r(T)p.r(T)}$$$RNA1{StrandType:ss}|RNA2{StrandType:as}$", "values": [{"measurement": "target mRNA knockdown", "result": 30.8, "unit": "%"}]}
{"substance": "RNA1{r(A)p.r(C)p.r(G)p.r(U)p.r(C)p.r(A)p.r(C)p.r(C)p.r(G)p.r(A)p.r(G)p.r(G)p.r(A)p.r(G)p.r(A)p.r(A)p.r(G)p.m(U)p.r(A)p.r(T)p.r(T)}|RNA2{r(U)p.r(A)p.r(C)p.r(U)p.r(U)p.r(C)p.r(U)p.r(C)p.r(C)p.r(U)p.r(C)p.r(G)p.r(G)p.r(U)p.r(G)p.r(A)p.r(C)p.r(G)p.r(U)p.r(T)p.r(T)}$$$RNA1{StrandType:ss}|RNA2{StrandType:as}$", "values": [{"measurement": "target mRNA knockdown", "result": 69, "unit": "%"}]}
{"substance": "RNA1{r(A)p.r(A)p.r(C)p.r(C)p.r(C)p.r(A)p.r(C)p.r(C)p.r(A)p.r(C)p.r(A)p.[fl2r](G)p.r(C)p.[fl2r](U)p.[fl2r](A)p.[fl2r](G)p.r(A)p.r(A)p.r(C)p.r(U)p.r(U)}|RNA2{r(A)p.r(A)p.r(G)p.r(U)p.r(U)p.r(C)p.r(U)p.r(A)p.r(G)p.r(C)p.r(U)p.r(G)p.r(U)p.r(G)p.r(G)p.r(U)p.r(G)p.r(G)p.r(G)p.r(U)p.r(U)}$$$RNA1{StrandType:ss}|RNA2{StrandType:as}$", "values": [{"measurement": "target mRNA knockdown", "result": 75, "unit": "%"}]}
{"substance": "RNA1{[fl2r](C)p.r(U)p.[fl2r](G)p.r(A)p.[fl2r](C)p.r(C)p.[fl2r](G)p.r(G)p.[fl2r](A)p.r(A)p.[fl2r](G)p.r(C)p.[fl2r](G)p.r(C)p.[fl2r](U)p.r(U)p.[fl2r](A)p.r(A)p.[fl2r](A)p.r(T)p.r(T)}|RNA2{r(U)p.r(U)p.r(U)p.[fl2r](A)p.[fl2r](A)p.r(G)p.r(C)p.r(G)p.r(C)p.r(U)p.r(U)p.r(C)p.r(C)p.r(G)p.r(G)p.r(U)p.r(C)p.[fl2r](A)p.r(G)p.r(T)p.r(T)}$$$RNA1{StrandType:ss}|RNA2{StrandType:as}$", "values": [{"measurement": "target mRNA knockdown", "result": 59, "unit": "%"}]}
{"substance": "RNA1{r(A)p.r(A)p.m(U)p.r(A)p.r(A)p.r(G)p.m(C)p.r(A)p.r(G)p.r(C)p.r(U)p.r(C)p.r(G)p.r(C)p.r(G)p.r(C)p.r(U)p.r(C)p.r(C)p.r(T)p.r(T)}|RNA2{r(G)p.r(G)p.r(A)p.r(G)p.r(C)p.r(G)p.r(C)p.r(G)p.r(A)p.r(G)p.r(C)p.r(U)p.r(G)p.r(C)p.r(U)p.m(U)p.r(A)p.r(U)p.r(U)p.r(T)p.r(T)}$$$RNA1{StrandType:ss}|RNA2{StrandType:as}$", "values": [{"measurement": "target mRNA knockdown", "result": 54, "unit": "%"}]}
{"substance": "RNA1{r(G)p.r(A)p.r(U)p.r(A)p.r(G)p.r(G)p.r(A)p.r(A)p.r(G)p.r(G)p.r(G)p.r(G)p.r(C)p.r(U)p.r(U)p.r(C)p.r(A)p.r(G)p.r(C)p.r(T)p.r(T)}|RNA2{r(G)p.m(C)p.m(U)p.r(G)p.r(A)p.r(A)p.r(G)p.m(C)p.m(C)p.m(C)p.m(C)p.m(U)p.m(U)p.m(C)p.m(C)p.m(U)p.r(A)p.m(U)p.m(C)p.r(T)p.r(T)}$$$RNA1{StrandType:ss}|RNA2{StrandType:as}$", "values": [{"measurement": "target mRNA knockdown", "result": 12, "unit": "%"}]}
{"substance": "RNA1{[s4r](A)p.[s4r](A)p.[s4r](A)p.[s4r](C)p.r(A)p.r(U)p.r(G)p.r(C)p.r(A)p.r(G)p.r(A)p.r(A)p.r(A)p.r(A)p.r(U)p.[s4r](G)p.[s4r](C)p.[s4r](U)p.[s4r](G)p.r(T)p.r(T)}|RNA2{r(C)p.r(A)p.r(G)p.r(C)p.r(A)p.r(U)p.r(U)p.r(U)p.r(U)p.r(C)p.r(U)p.r(G)p.r(C)p.r(A)p.r(U)p.r(G)p.r(U)p.[s4r](U)p.[s4r](U)p.r(T)p.r(T)}$$$RNA1{StrandType:ss}|RNA2{StrandType:as}$", "values": [{"measurement": "target mRNA knockdown", "result": 85.5, "unit": "%"}]}
{"substance": "RNA1{[s4r](C)p.[s4r](G)p.r(U)p.r(A)p.r(C)p.r(G)p.r(C)p.r(G)p.r(G)p.r(A)p.r(A)p.r(U)p.r(A)p.r(C)p.r(U)p.r(U)p.r(C)p.[s4r](G)p.[s4r](A)p.r(T)p.r(T)}|RNA2{r(U)p.r(C)p.r(G)p.r(A)p.r(A)p.r(G)p.r(U)p.r(A)p.r(U)p.r(U)p.r(C)p.r(C)p.r(G)p.r(C)p.r(G)p.r(U)p.r(A)p.r(C)p.r(G)p.r(T)p.r(T)}$$$RNA1{StrandType:ss}|RNA2{StrandType:as}$", "values": [{"measurement": "target mRNA knockdown", "result": 95.3, "unit": "%"}]}
{"substance": "RNA1{r(C)p.r(C)p.r(G)p.r(A)p.r(A)p.r(G)p.r(A)p.r(C)p.r(G)p.m(A)p.m(A)p.r(G)p.r(C)p.m(U)p.r(A)p.m(U)p.r(G)p.r(A)p.r(A)p.r(T)p.r(T)}|RNA2{r(U)p.r(U)p.m(C)p.r(A)p.m(U)p.r(A)p.r(G)p.r(C)p.r(U)p.r(U)p.r(C)p.r(G)p.r(U)p.r(C)p.r(U)p.r(U)p.r(C)p.r(G)p.r(G)p.r(T)p.r(T)}$$$RNA1{StrandType:ss}|RNA2{StrandType:as}$", "values": [{"measurement": "target mRNA knockdown", "result": 69, "unit": "%"}]}
{"substance": "RNA1{r(A)p.r(A)p.r(A)p.r(G)p.r(G)p.r(G)p.r(G)p.r(A)p.r(G)p.r(U)p.m(U)p.r(G)p.r(C)p.m(U)p.r(G)p.r(G)p.r(A)p.r(A)p.r(G)p.r(T)p.r(T)}|RNA2{r(C)p.r(U)p.r(U)p.r(C)p.m(C)p.r(A)p.r(G)p.m(C)p.r(A)p.r(A)p.r(C)p.r(U)p.r(C)p.r(C)p.r(C)p.r(C)p.r(U)p.r(U)p.r(U)p.r(T)p.r(T)}$$$RNA1{StrandType:ss}|RNA2{StrandType:as}$", "values": [{"measurement": "target mRNA knockdown", "result": 74, "unit": "%"}]}
{"substance": "RNA1{m(C)p.r(C)p.m(U)p.r(C)p.m(G)p.r(G)p.m(A)p.r(G)p.m(A)p.r(G)p.m(U)p.r(U)p.m(C)p.r(U)p.m(A)p.r(C)p.m(U)p.r(C)p.r(U)p.r(T)p.r(T)}|RNA2{r(A)p.r(G)p.r(A)p.r(G)p.r(U)p.r(A)p.r(G)p.r(A)p.r(A)p.r(C)p.r(U)p.r(C)p.r(U)p.r(C)p.r(C)p.r(G)p.r(A)p.r(G)p.r(G)p.r(T)p.r(T)}$$$RNA1{StrandType:ss}|RNA2{StrandType:as}$", "values": [{"measurement": "target mRNA knockdown", "result": 34, "unit": "%"}]}
{"substance": "RNA1{[s4r](C)p.[s4r](G)p.[s4r](U)p.[s4r](A)p.r(C)p.r(G)p.r(C)p.r(G)p.r(G)p.r(A)p.r(A)p.r(U)p.r(A)p.r(C)p.r(U)p.[s4r](U)p.[s4r](C)p.[s4r](G)p.[s4r](A)p.r(T)p.r(T)}|RNA2{r(U)p.r(C)p.r(G)p.r(A)p.r(A)p.r(G)p.r(U)p.r(A)p.r(U)p.r(U)p.r(C)p.r(C)p.r(G)p.r(C)p.r(G)p.r(U)p.r(A)p.[s4r](C)p.[s4r](G)p.r(T)p.r(T)}$$$RNA1{StrandType:ss}|RNA2{StrandType:as}$", "values": [{"measurement": "target mRNA knockdown", "result": 92, "unit": "%"}]}
{"substance": "RNA1{r(C)p.r(U)p.r(U)p.r(A)p.r(C)p.r(G)p.r(C)p.r(U)p.r(G)p.r(A)p.r(G)p.r(U)p.r(A)p.r(C)p.r(U)p.r(U)p.r(C)p.r(G)p.r(A)p.r(T)p.r(T)}|RNA2{r(U)p.r(C)p.r(G)p.r(A)p.r(A)p.r(G)p.r(U)p.r(A)p.r(C)p.r(U)p.r(C)p.r(A)p.r(G)p.r(C)p.r(G)p.[lna](U)p.r(A)p.r(A)p.r(G)p.r(T)p.r(T)}$$$RNA1{StrandType:ss}|RNA2{StrandType:as}$", "values": [{"measurement": "target mRNA knockdown", "result": 81, "unit": "%"}]}
{"substance": "RNA1{r(U)p.r(G)p.r(A)p.r(A)p.r(U)p.r(C)p.r(A)p.r(G)p.r(A)p.r(A)p.r(G)p.r(A)p.r(U)p.r(G)p.r(A)p.r(A)p.r(G)p.r(U)p.r(C)p.r(A)p.r(A)}|RNA2{[una](G)p.r(A)p.r(C)p.r(U)p.r(U)p.r(C)p.r(A)p.r(U)p.r(C)p.r(U)p.r(U)p.r(C)p.r(U)p.r(G)p.r(A)p.r(U)p.r(U)p.r(C)p.r(A)p.r(A)p.r(G)}$$$RNA1{StrandType:ss}|RNA2{StrandType:as}$", "values": [{"measurement": "target mRNA knockdown", "result": "94% and 92%"}]}
{"substance": "RNA1{r(U)p.m(U)p.r(A)p.m(C)p.r(A)p.r(A)p.r(A)p.r(G)p.r(G)p.m(A)p.r(U)p.r(C)p.r(U)p.r(C)p.r(C)p.r(U)p.r(C)p.r(C)p.r(C)p.r(T)p.r(T)}|RNA2{r(G)p.r(G)p.r(G)p.r(A)p.r(G)p.r(G)p.r(A)p.r(G)p.m(A)p.r(U)p.r(C)p.r(C)p.r(U)p.r(U)p.m(U)p.r(G)p.m(U)p.r(A)p.r(A)p.r(T)p.r(T)}$$$RNA1{StrandType:ss}|RNA2{StrandType:as}$", "values": [{"measurement": "target mRNA knockdown", "result": 78, "unit": "%"}]}
{"substance": "RNA1{r(A)p.m(A)p.r(G)p.m(G)p.r(A)p.m(G)p.r(A)p.m(U)p.r(C)p.m(A)p.r(A)p.m(C)p.r(A)p.m(U)p.r(U)p.m(U)p.r(U)p.m(C)p.r(A)p.r(T)p.r(T)}|RNA2{m(U)p.r(G)p.m(A)p.r(A)p.m(A)p.r(A)p.m(U)p.r(G)p.m(U)p.r(U)p.m(G)p.r(A)p.m(U)p.r(C)p.m(U)p.r(C)p.m(C)p.r(U)p.m(U)p.r(T)p.r(T)}$$$RNA1{StrandType:ss}|RNA2{StrandType:as}$", "values": [{"measurement": "target mRNA knockdown", "result": 83, "unit": "%"}]}
{"substance": "RNA1{r(C)p.r(C)p.r(C)p.r(C)p.m(A)p.m(G)p.m(G)p.m(U)p.m(A)p.m(A)p.m(C)p.r(G)p.r(A)p.r(U)p.r(U)p.r(U)p.r(U)p.r(C)p.r(U)p.r(T)p.r(T)}|RNA2{r(A)p.r(G)p.r(A)p.r(A)p.r(A)p.r(A)p.r(U)p.r(C)p.r(G)p.r(U)p.r(U)p.r(A)p.r(C)p.r(C)p.r(U)p.r(G)p.r(G)p.r(G)p.r(G)p.r(T)p.r(T)}$$$RNA1{StrandType:ss}|RNA2{StrandType:as}$", "values": [{"measurement": "target mRNA knockdown", "result": 79, "unit": "%"}]}
{"substance": "RNA1{r(C)p.m(U)p.r(A)p.r(G)p.r(U)p.r(C)p.r(G)p.r(A)p.r(A)p.r(A)p.r(G)p.r(A)p.r(A)p.r(A)p.r(A)p.r(C)p.r(G)p.r(G)p.r(G)p.r(T)p.r(T)}|RNA2{r(C)p.r(C)p.r(C)p.r(G)p.r(U)p.r(U)p.r(U)p.r(U)p.r(C)p.r(U)p.r(U)p.r(U)p.r(C)p.r(G)p.r(A)p.r(C)p.m(U)p.r(A)p.r(G)p.r(T)p.r(T)}$$$RNA1{StrandType:ss}|RNA2{StrandType:as}$", "values": [{"measurement": "target mRNA knockdown", "result": 56, "unit": "%"}]}
